By TGI is commonly meant the concentration at which net growth stops. As a reminder, the GI50 is the concentration that inhibits growth by half.

Structures are written as SMILES. “And” between values parts separate entries of the source, which are not always exact repeats. Equal values may be shown once.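 Protocol summary: plate cells (96-well), add compound at 5 concentrations, incubate 48 h, interpolate endpoints linearly. GI50 is the concentration that inhibits growth by half. At the TGI there is no net growth.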 A value given as a limit tells only on which side of the number the result lay.

These results are taken from PubChem BioAssay (NCI).

Common to all, as to experiment: DTP human tumour cell line panel, 48 h
Assay [1] deals with 786-0 renal.
Assay [2] concerns CCRF-CEM leukemia.
The subject of assay [3] is EKVX NSCLC.
Assay [4] deals with HCT-15 colon.
Assay [5] concerns HOP-92 NSCLC.
For assay [6], the system named is LOX IMVI melanoma.
In assay [7] the test system is MDA-MB-435.
Assay [8] relates to MDA-N.
Assay [9] deals with MOLT-4 leukemia.
In assay [10] the test system is SN12C renal.
Assay [11] has as its system SR leukemia.

Consider `CC(=O)NC1C(CO)O[C@@H]2OC(C)(C)O[C@H]12` (some centres not stated), for which the TGI in assay [1], in assay [2], in assay [3], in [4], in assay [5] and in assay [6] was more than 100 µM each time. Further, the TGI in assay [7], in [8], in assay [9] and in assay [10] was more than 100 µM in each case.
As to `NC(N)=N/N=C/c1c(-c2ccc([N+](=O)[O-])cc2)nc2sccn12`, the TGI in assay [1] worked out at 3.07 µM; in assay [3], 3.44 µM; in assay [4], 23.7 µM; in assay [5], 3.52 µM; in assay [7], 2.87 µM; in assay [10] it was 3.2 µM.
Turning to `CCOC(=O)c1ccc2nc(NC(=O)COC(=O)CSc3nc(C)cc(C)n3)sc2c1`, the total growth inhibition concentration (TGI) in [1] was more than 100 µM; in assay [2], 15.5 µM; in assay [3], 62 µM; in assay [4], more than 100 µM; in assay [5] it was more than 100 µM; in assay [6], more than 100 µM. The TGI in [7], in assay [9], in [10] and in assay [11] was more than 100 µM in each case.
Regarding `O=C(Nn1c(-c2ccccc2)nc2ccccc2c1=O)c1ccccn1`, the TGI in [1], in assay [2], in assay [3], in assay [5], in assay [6] and in [7] was more than 100 µM throughout. Besides, the TGI in assay [9], in assay [10] and in [11] was more than 100 µM each time.
Consider `O=C1c2[nH]cc(CN3CCNCC3)c2C(=O)c2c1c(O)c1ccccc1c2O`, for which the GI50 in assay [3] was 0.769 µM; in assay [4] it was 1.31 µM; in [5], 3.05 µM; in assay [7] it was 2.54 µM; in assay [9] it was 3.08 µM; in assay [10], 1.78 µM. In assay [11], the GI50 is 6.09 µM. The TGI in assay [3] is 2.49 µM; in assay [4], 2.7 µM; in assay [5], 13.1 µM; in assay [7] it was 4.59 µM; in assay [9] it was more than 20 µM; in [10] it was 5.15 µM. This molecule had a TGI in [11] of more than 100 µM.
Consider `COC(=O)c1sc(=S)sc1SCc1ccccc1CSc1sc(=S)sc1C(=O)OC`, for which the TGI is more than 100 µM in assay [1]; 87.6 µM in [2]; more than 100 µM in [3]; more than 100 µM in [4]; more than 100 µM in [5]; more than 100 µM in assay [6]. In addition, the total growth inhibition concentration (TGI) in assay [7], in [8], in [9] and in [10] was more than 100 µM throughout.
In the case of `COc1ccc(C2(c3ccc(OC)cc3)OC(=O)c3cccc4cccc2c34)cc1`, the TGI in assay [1] was more than 100 µM; in assay [2], 7.71 µM; in assay [3], 29 µM; in assay [4], more than 100 µM; in [5], more than 100 µM; in [6], more than 100 µM. Besides, the TGI in [7] was more than 100 µM; in assay [9], more than 100 µM; in assay [10], more than 100 µM; in assay [11], 44.8 µM.
For the molecule `COc1cc2cc(C(=O)N3CC(CCl)c4c3cc(N)c3ccccc43)[nH]c2cc1OCCN(C)C` (configuration not stated), the TGI in assay [2] was less than 0.005 µM; in assay [3] it was 10.7 µM; in [4], 5.45 µM; in assay [5] it was 0.01 µM; in assay [7], less than 0.005 µM; in [9], 17.4 µM. For the same molecule, the TGI in [10] came out at 0.5 µM.
Turning to `COc1cccc(NC(=O)CSc2nnc(-c3ccc(N=Cc4ccc(Cl)cc4)cc3)o2)c1`, the TGI in [1] was 57.5 µM; in assay [2], more than 100 µM; in assay [3], more than 100 µM; in [4], 33.8 µM; in [6], 37.7 µM; in assay [9] it was 93.3 µM. Further, the TGI in assay [10] was 43 µM; in [11], more than 100 µM.
Consider `CC1=CC(O)C(O)C2(C)C1CC1OC(=O)C(O)C3C(C)C(O)C4(O)OCC13C42` (configuration not stated), for which the TGI in [2] is 96.9 µM; in assay [3], 197 µM; in assay [4], more than 625 µM; in [5], 14.6 µM; in assay [6], 156 µM; in [9], 65.6 µM. In [10], this molecule came in with a TGI of more than 625 µM.
Turning to `O=S1(=O)NNC(=NCc2ccc(Cl)cc2)c2ccccc21`, the TGI in assay [1], in assay [2], in assay [3], in assay [4], in [5] and in assay [6] was more than 100 µM throughout. Besides, the TGI in assay [9] and in assay [10] was more than 100 µM throughout.
Take `COc1cc(C2C3=C(CCC3=O)Oc3cc4c(cc32)OCO4)cc(OC)c1OC` (configuration not stated): the TGI in assay [2] is more than 100 µM; in assay [3], more than 100 µM; in assay [4] it was more than 100 µM; in [5], 6.47 µM; in assay [6], more than 100 µM; in assay [10], more than 100 µM.
For `CCCCc1c2c(nc3c1CCc1cc4c(nc1-3)-c1nc3c(c(CCCC)c1CC4)CCC/C3=C\c1ccccc1)/C(=C/c1ccccc1)CCC2`, the TGI in [1], in assay [2], in [3], in assay [4], in [5] and in [6] was more than 100 µM in each case. Also, the concentration for total growth inhibition (TGI) in [9], in assay [10] and in assay [11] was more than 100 µM in each case.
As to `Nc1ccc2c(c1)C(=O)c1ccccc1-2`, the TGI in [1] was more than 100 µM; in assay [2], more than 100 µM; in assay [3] it was more than 100 µM; in assay [4], more than 100 µM; in [5], 91 µM; in assay [6] it was more than 100 µM. The TGI in [7] is more than 100 µM; in [9] it was 75.1 µM; in assay [10], more than 100 µM; in [11], more than 100 µM.
On to `Cc1cccc(C(C)(C)C)c1NC(=O)/C(Cc1nc2ccc([N+](=O)[O-])cc2[nH]c1=O)=N/NC(=O)C[N+](C)(C)C`, for which the TGI in assay [1], in assay [3], in assay [4], in [5], in assay [6] and in [7] was more than 100 µM each time. Besides, the TGI in assay [8], in assay [9] and in assay [10] was more than 100 µM each time.
Regarding `CCOc1ccc2[nH]c3c(C)c4cc[n+](C)cc4c(C)c3c2c1`, the TGI is 1.62 µM and 2.43 µM in assay [1]; 23.7 µM and 37.3 µM in assay [2]; more than 100 µM in assay [3]; more than 100 µM in [4]; 13.1 µM and 25.3 µM in assay [5]; 19.4 µM and > 67.1 µM in assay [6]. The TGI in assay [9] was 21.6 µM and > 56 µM; in [10], 1.25 µM and 2.69 µM; in [11], 13.7 µM and > 62.5 µM. In addition, the GI50 in assay [4] is 6.05 µM and > 35.6 µM; in assay [6], 2.99 µM and 11.4 µM; in [9], 1.11 µM and 2.69 µM; in [11], 1.13 µM and 2.69 µM.
As to `CCCCCc1cc2c(cc1O)CC[C@@H]1[C@@H]2CC[C@]2(C)[C@@H](O)CC[C@@H]12`, the TGI came to 28.9 µM in [1]; 92.8 µM in [2]; 36.8 µM in [3]; 31.3 µM in [4]; 32.3 µM in assay [5]; 39.2 µM in assay [6]. In addition, the TGI came to 30.6 µM in assay [7], 35.1 µM in assay [8], 85.3 µM in assay [9] and 29.8 µM in [10].
For the molecule `O=c1[nH]c(=O)n(C2OC(COP(=O)(O)OP(=O)(O)O)C(O)C2O)cc1F` (configuration not stated), the TGI in assay [1] was 7.09 µM; in assay [2] it was more than 50 µM; in assay [3] it was 42.5 µM; in assay [4], more than 50 µM; in [5], more than 50 µM; in [6] it was 23 µM. Further, the TGI in assay [9], in assay [10] and in [11] was more than 50 µM each time.
Regarding `Nc1nc(Cl)cc(N=Nc2ccccc2)n1`, the TGI is more than 100 µM in [1]; more than 100 µM in [2]; more than 100 µM in assay [3]; 35 µM in assay [4]; 7.53 µM in [5]; 67 µM in [6]. For the same molecule, the TGI in [7], in assay [9], in assay [10] and in [11] was more than 100 µM throughout.
For `CN1CCn2c(Br)ccc2C1=O`, the TGI in assay [1], in [2], in [3], in [4], in assay [6] and in assay [9] was more than 100 µM each time. Moreover, the TGI in assay [10] and in assay [11] was more than 100 µM throughout.
On to `Cc1cc(Cc2c(F)c(F)c(Cc3cc(C)no3)c(F)c2F)on1`, for which the TGI in assay [1], in [2], in assay [3], in [4], in assay [5] and in [6] was more than 100 µM each time. Further, the TGI in [7], in assay [8], in [9] and in assay [10] was more than 100 µM in each case.
Turning to `CNC(=O)CCC(NC(C)=O)C(=O)NC(Cc1ccc(NC(=O)CCCCC(C)=O)cc1)C(=O)NC(CCC(=O)NC)C(=O)NC` (configuration not stated), the TGI in [1], in assay [3], in assay [4], in assay [5], in assay [6] and in [7] was more than 100 µM in each case. For the same molecule, the TGI in assay [8], in assay [9] and in assay [10] was more than 100 µM in each case.
In the case of `N#Cc1c(NC(=O)c2ccccc2)sc2c1CCC(=O)C2`, the GI50 in [2] was 0.43 µM; in assay [3] it was 2.33 µM; in assay [4], 0.395 µM; in [5], 0.821 µM; in assay [6] it was 0.821 µM; in assay [7], 0.594 µM. For the same molecule, the GI50 was 1.2 µM in [9] and 1.16 µM in [10]. The TGI in assay [2] was more than 100 µM; in [3] it was 10.4 µM; in assay [4] it was 2.39 µM; in assay [5], 2.72 µM; in assay [6], 5.97 µM; in [7], 3.6 µM. Further, the TGI in [9] was more than 100 µM; in assay [10], 7.51 µM.
As to `S=C(N/N=C\C=N/NC(=S)N1CCCCCC1)N1CCCCCC1`, the TGI in assay [1], in assay [3], in assay [4], in assay [5], in assay [6] and in assay [7] was more than 100 µM throughout. Moreover, the TGI in [8], in [9] and in assay [10] was more than 100 µM throughout.
With `O=C(O)/C=C(/CC(=O)O)C(=O)O`, the TGI in [1] was 33.3 µM; in assay [2] it was 37.2 µM; in [3] it was 51.7 µM; in [4], 54 µM; in [6] it was 47.1 µM; in [7], 42.6 µM. Also, the TGI in [8] is 54.6 µM; in [9] it was 38.4 µM; in [10] it was 40.7 µM.
Consider `N#Cc1c(Nc2ccc(F)cc2)[n+]([O-])c2ccc(Cl)cc2[n+]1[O-]`, for which the TGI is 27.5 µM in assay [1]; more than 100 µM in assay [2]; 13.3 µM in assay [4]; 5.16 µM in assay [5]; 4.27 µM in [6]; more than 100 µM in assay [7]. Besides, the TGI was more than 100 µM in assay [8], 9.09 µM in [9] and 13.4 µM in assay [10].
For the molecule `CC1(C)COC(c2cccc(C3=NC(C)(C)CO3)c2Br)=N1`, the TGI in assay [1], in [3], in [4], in assay [5], in assay [6] and in assay [7] was more than 100 µM each time. Moreover, the TGI in assay [9] and in assay [11] was more than 100 µM in each case.
Turning to `COC(=O)c1ccc(-c2nc(C#N)c(N)o2)cc1`, the TGI in [1], in assay [2], in assay [3], in assay [4], in [6] and in assay [7] was more than 100 µM throughout. For the same molecule, the TGI in assay [9], in assay [10] and in assay [11] was more than 100 µM each time.
